Earlier results as cited in patent US11612566B2, “Lamotrigine oral liquid suspension and use thereof” (OWP Pharmaceuticals, Inc., priority 2019, dated 2023).

Conditions: BCS class II molecule; poorly soluble in water

solubility: low
SMILES: Nc1nnc(-c2cccc(Cl)c2Cl)c(N)n1 [Lamotrigine, 6-(2,3-dichlorophenyl)-1,2,4-triazine-3,5-diamine]
